These results are taken from publication PMC7980035 (The Journal of Biological Chemistry, 2021).

Like-named read-outs stand apart in the source and are kept apart here.

The format of data set [1] is physicochemical. The following applies: pH 7.3.
The target in data set [2] is T1, SARS 3C-like proteinase (Severe acute respiratory syndrome coronavirus, UniProt P0C6X7). The note with it: pH 7.3.
Data set [3] deals with T1, SARS 3C-like proteinase. The note with it: pH 7.3. This is another data set of the same source.
For data set [4] the following is noted: pH 7.3.
In data set [5] the target is SARS coronavirus 3C-like proteinase, C-terminal His6 tag (plasmid pET 3CLP-21x) (SARS coronavirus) (UniProt P0C6X7). As to the kind of experiment: SEC. (In gel filtration, larger molecules generally elute earlier.)

As usually defined, the Km is the concentration of substrate that gives half-maximal velocity. As a reminder, the kcat is the maximal rate divided by the concentration of active sites. Regarding ATVRLQ/AGNAT [Peptide S06], in data set [1], the “Calculated secondary structure content: Helix” value was 2, the “Calculated secondary structure content: Other” value is given as 43, the “Calculated secondary structure content: Sheet” value is 25 and the “Calculated secondary structure content: Tum” value is reported as 30. For the same substance, in data set [2], the Km was determined as 1440 ± 470 µM, the kcat came out at 0.0548 ± 0.0178 s⁻¹ and the kcat/Km is on record as 2.29 ± 0.09 ^a mM^-1 min^-1.

For the substance FYPKLQ/ASQAW [Peptide S11], in data set [1], the “Calculated secondary structure content: Helix” value is on record as 2, the “Calculated secondary structure content: Other” value is recorded as 36, the “Calculated secondary structure content: Sheet” value is given as 30 and the “Calculated secondary structure content: Tum” value is 32. In addition, in data set [2], the Km was 549 ± 105 µM, the kcat was determined as 0.0262 ± 0.00467 s⁻¹ and the kcat/Km is given as 2.86 ± 0.21 ^a mM^-1 min^-1.

Consider KVATVQ/SKMSD [Peptide S03], for which, in data set [1], the “Calculated secondary structure content: Helix” value was 2, the “Calculated secondary structure content: Other” value was 46, the “Calculated secondary structure content: Sheet” value is reported as 25 and the “Calculated secondary structure content: Tum” value is listed as 28. Further, the kcat/Km in data set [3] is 0.353 ± 0.013 ^b mM^-1 min^-1.

With NRATLQ/AIASE [Peptide S04], in data set [1], the “Calculated secondary structure content: Helix” value is listed as 2, the “Calculated secondary structure content: Other” value is 45, the “Calculated secondary structure content: Sheet” value is reported as 24 and the “Calculated secondary structure content: Tum” value is listed as 30. Further, in data set [3], the kcat/Km is recorded as 0.556 ± 0.126 ^b mM^-1 min^-1.

On to NVATLQ/AENVT [Peptide S09], for which the kcat/Km in data set [3] was 0.976 ± 0.014 ^b mM^-1 min^-1. Also, in data set [4], the solubility entry is recorded as “very low solubility”.

Turning to PHTVLQ/AVGAC [Peptide S08], in data set [1], the “Calculated secondary structure content: Helix” value is recorded as 5, the “Calculated secondary structure content: Other” value is given as 45, the “Calculated secondary structure content: Sheet” value was 21 and the “Calculated secondary structure content: Tum” value is listed as 29. In data set [2], the Michaelis-Menten constant (Km) was 1940 ± 660 µM, the kcat amounted to 0.028 ± 0.0095 s⁻¹ and the kcat/Km was 0.865 ± 0.028 ^a mM^-1 min^-1.

As for REPLMQ/SADAS [Peptide S07], in data set [1], the “Calculated secondary structure content: Helix” value is 1, the “Calculated secondary structure content: Other” value is listed as 41, the “Calculated secondary structure content: Sheet” value is recorded as 18 and the “Calculated secondary structure content: Tum” value was 40. The kcat/Km in data set [3] was 0.0176 ± 0.0022 ^b mM^-1 min^-1.

As a reminder, the Kd is the constant that tells how readily two partners part at equilibrium. “SARS coronavirus 3C-like proteinase, C-terminal His6 tag (plasmid pET 3CLP-21x) (from UniProt P0C6X7 3241-3546) (enzyme)” gave a Kd in data set [5] of 100 µM.

Consider SAVKLQ/NNELS [Peptide S05], for which, in data set [1], the “Calculated secondary structure content: Helix” value is recorded as 10, the “Calculated secondary structure content: Other” value is 44, the “Calculated secondary structure content: Sheet” value is listed as 19 and the “Calculated secondary structure content: Tum” value was 27. The kcat/Km in data set [3] is on record as 0.202 ± 0.003 ^b mM^-1 min^-1.

For the substance SGVTFQ/GKFKK [Peptide S02], in data set [1], the “Calculated secondary structure content: Helix” value is on record as 3, the “Calculated secondary structure content: Other” value is on record as 31, the “Calculated secondary structure content: Sheet” value is 42 and the “Calculated secondary structure content: Tum” value is given as 24. For the same substance, in data set [2], the Michaelis-Menten constant (Km) was found to be 583 ± 86 µM, the kcat is 0.0425 ± 0.00583 s⁻¹ and the kcat/Km was 4.38 ± 0.26 ^a mM^-1 min^-1.

Regarding TFTRLQ/SLENV [Peptide S10], in data set [1], the “Calculated secondary structure content: Helix” value is reported as 4, the “Calculated secondary structure content: Other” value was 41, the “Calculated secondary structure content: Sheet” value is 22 and the “Calculated secondary structure content: Tum” value is recorded as 33. For the same substance, in data set [2], the Km stood at 286 ± 20 µM, the kcat was 0.0141 ± 0.00085 s⁻¹ and the kcat/Km is listed as 2.96 ± 0.11 ^a mM^-1 min^-1.
